Measured values as given in patent US12599136B2, “Substituted isophthalic acid diamides and their use as herbicides” (Bayer Aktiengesellschaft, priority 2020, dated 2026).

Key:
Type in all cases: in vivo
Abutilon theophrasti [1] = assay: Pre-emergence herbicidal action against ABUTH; details: visual score after 3 weeks vs untreated controls
Source text: (§1) Seeds of monocotyledonous and dicotyledonous weed plants and crop plants are laid out in sandy loam soil in wood-fiber pots and covered with soil. The compounds of the invention, formulated in the form of wettable powders (WP) or as emulsion concentrates (EC), are then applied to the surface of the covering soil in the form of an aqueous suspension or emulsion at a water application rate equivalent to 600 to 800 l/ha, with addition of 0.2% wetting agent. After the treatment, the pots are placed in a greenhouse and kept under good growth conditions for the trial plants. The damage to the test plants is scored visually after a test period of 3 weeks by comparison with untreated controls (herbicidal activity in percent (%): 100% activity=the plants have died, 0% activity=like control plants). […] The tables below illustrate, in an illustrative manner, the post-emergence herbicidal action of the compounds of the invention, the herbicidal activity being stated in percent.

Viola tricolor [2] = assay: Pre-emergence herbicidal action against VIOTR
Source text: as §1

Echinochloa crus-galli [3] = assay: Post-emergence herbicidal action against ECHCG; details: visual assessment about 3 weeks after treatment
Experimental: (§2) Seeds of monocotyledonous and dicotyledonous weed and crop plants are laid out in sandy loam soil in wood-fiber pots, covered with soil and cultivated in a greenhouse under good growth conditions. 2 to 3 weeks after sowing, the test plants are treated at the one-leaf stage. The compounds of the invention, formulated in the form of wettable powders (WP) or as emulsion concentrates (EC), are then sprayed onto the green parts of the plants in the form of an aqueous suspension or emulsion at a water application rate equivalent to 600 to 800 l/ha, with addition of 0.2% wetting agent. After the test plants have been left to stand in the greenhouse under optimal growth conditions for about 3 weeks, the action of the preparations is assessed visually in comparison to untreated controls (herbicidal action in percent (%): 100% activity=the plants have died, 0% activity=like control plants). […] The tables below illustrate, in an illustrative manner, the post-emergence herbicidal action of the compounds of the invention, the herbicidal activity being stated in percent.

Viola tricolor [4] = assay: Post-emergence herbicidal action against VIOTR
Experimental: as §2

Matricaria inodora [5] = assay: Pre-emergence herbicidal action against MATIN; details: visual score after 3 weeks vs untreated controls
Source text: as §1

Matricaria inodora [6] = assay: Post-emergence herbicidal action against MATIN; details: visual assessment about 3 weeks after treatment
Experimental: as §2

Pharbitis purpurea = assay: Post-emergence herbicidal action against PHBPU; details: 20 g/ha, visual assessment about 3 weeks after treatment
Experimental: as §2

Alopecurus myosuroides [7] = assay: Pre-emergence herbicidal action against ALOMY; details: 80 g/ha; visual score after 3 weeks vs untreated controls
Source text: as §1

Setaria viridis [8] = assay: Pre-emergence herbicidal action against SETVI; details: 80 g/ha
Source text: as §1

Setaria viridis [9] = assay: Post-emergence herbicidal action against SETVI; details: visual assessment about 3 weeks after treatment
Experimental: as §2

Alopecurus myosuroides [10] = assay: Post-emergence herbicidal action against ALOMY; details: 20 g/ha
Experimental: as §2

Veronica persica [11] = assay: Pre-emergence herbicidal action against VERPE
Source text: as §1

Digitaria sanguinalis = assay: Pre-emergence herbicidal action against DIGSA
Source text: as §1

Avena fatua = assay: Post-emergence herbicidal action against AVEFA; details: 20 g/ha, visual assessment about 3 weeks after treatment
Experimental: as §2

Amaranthus retroflexus [12] = assay: Pre-emergence herbicidal action against AMARE; details: visual score after 3 weeks vs untreated controls
Source text: as §1

Echinochloa crus-galli [13] = assay: Pre-emergence herbicidal action against ECHCG; details: 80 g/ha; visual score after 3 weeks vs untreated controls
Source text: as §1

Amaranthus retroflexus [14] = assay: Post-emergence herbicidal action against AMARE; details: visual assessment about 3 weeks after treatment
Experimental: as §2

Veronica persica [15] = assay: Post-emergence herbicidal action against VERPE; details: 20 g/ha, visual assessment about 3 weeks after treatment
Experimental: as §2

Abutilon theophrasti [16] = assay: Post-emergence herbicidal action against ABUTH
Experimental: as §2

Polygonum convolvulus = assay: Pre-emergence herbicidal action against POLCO; details: 80 g/ha
Source text: as §1

CCN(CC)C(=O)c1c(C(F)(F)F)ccc(C(=O)Nc2nnnn2CC)c1C [Example 2-31]
90%: Post-emergence action against ECHCG in % (Echinochloa crus-galli [3]; 20 g/ha) | Pre-emergence action against MATIN (Matricaria inodora [5]; 20 g/ha) | Post-emergence action against MATIN in % (Matricaria inodora [6]; 20 g/ha) | Post-emergence action against PHBPU in % (Pharbitis purpurea) | Pre-emergence action against SETVI (Setaria viridis [8]) | Post-emergence action against SETVI in % (Setaria viridis [9]; 20 g/ha) | Pre-emergence action against DIGSA (Digitaria sanguinalis; 20 g/ha)
80%: Post-emergence action against ECHCG in % (Echinochloa crus-galli [3]; 5 g/ha) | Post-emergence action against MATIN in % (Matricaria inodora [6]; 5 g/ha) | Pre-emergence action against ALOMY (Alopecurus myosuroides [7]) | Post-emergence action against SETVI in % (Setaria viridis [9]; 5 g/ha) | Post-emergence action against ALOMY (Alopecurus myosuroides [10]) | Pre-emergence action against VERPE (Veronica persica [11]; 80 g/ha) | Post-emergence action against AVEFA in % (Avena fatua)
100%: Pre-emergence action against ABUTH (Abutilon theophrasti [1]; 20 g/ha) | Pre-emergence action against ABUTH (Abutilon theophrasti [1]; 80 g/ha) | Pre-emergence action against VIOTR (Viola tricolor [2]; 20 g/ha) | Pre-emergence action against VIOTR (Viola tricolor [2]; 80 g/ha) | Post-emergence action against VIOTR in % (Viola tricolor [4]; 5 g/ha) | Post-emergence action against VIOTR in % (Viola tricolor [4]; 20 g/ha) | Pre-emergence action against MATIN (Matricaria inodora [5]; 80 g/ha) | Pre-emergence action against DIGSA (Digitaria sanguinalis; 80 g/ha) | Pre-emergence action against AMARE (Amaranthus retroflexus [12]; 20 g/ha) | Pre-emergence action against AMARE (Amaranthus retroflexus [12]; 80 g/ha)

CCOC(=O)[C@@H]1CCCN1C(=O)c1c(C(F)(F)F)ccc(C(=O)Nc2nnnn2CC)c1C [Example 2-399]
100%: Pre-emergence action against ABUTH (Abutilon theophrasti [1]; 20 g/ha) | Pre-emergence action against ABUTH (Abutilon theophrasti [1]; 80 g/ha) | Pre-emergence action against VIOTR (Viola tricolor [2]; 80 g/ha) | Pre-emergence action against MATIN (Matricaria inodora [5]; 80 g/ha) | Pre-emergence action against SETVI (Setaria viridis [8]) | Pre-emergence action against VERPE (Veronica persica [11]; 20 g/ha) | Pre-emergence action against VERPE (Veronica persica [11]; 80 g/ha) | Pre-emergence action against DIGSA (Digitaria sanguinalis; 80 g/ha) | Pre-emergence action against AMARE (Amaranthus retroflexus [12]; 80 g/ha)
80%: Post-emergence action against ECHCG in % (Echinochloa crus-galli [3]; 20 g/ha) | Post-emergence action against MATIN in % (Matricaria inodora [6]; 20 g/ha) | Post-emergence action against AMARE in % (Amaranthus retroflexus [14]; 20 g/ha)
90%: Pre-emergence action against VIOTR (Viola tricolor [2]; 20 g/ha) | Pre-emergence action against MATIN (Matricaria inodora [5]; 20 g/ha) | Post-emergence action against PHBPU in % (Pharbitis purpurea) | Pre-emergence action against DIGSA (Digitaria sanguinalis; 20 g/ha) | Pre-emergence action against ECHCG (Echinochloa crus-galli [13]) | Pre-emergence action against AMARE (Amaranthus retroflexus [12]; 20 g/ha)

CCOC(=O)[C@@H]1CCCN1C(=O)c1c(C(F)(F)F)ccc(C(=O)Nc2nnnn2CC)c1Cl [Example 2-398]
90%: Pre-emergence action against DIGSA (Digitaria sanguinalis; 80 g/ha)
80%: Pre-emergence action against ABUTH (Abutilon theophrasti [1]; 20 g/ha) | Pre-emergence action against SETVI (Setaria viridis [8])
100%: Pre-emergence action against ABUTH (Abutilon theophrasti [1]; 80 g/ha) | Pre-emergence action against VIOTR (Viola tricolor [2]; 80 g/ha) | Pre-emergence action against MATIN (Matricaria inodora [5]; 80 g/ha) | Pre-emergence action against AMARE (Amaranthus retroflexus [12]; 80 g/ha)

CCn1nnnc1NC(=O)c1ccc(C(F)F)c(C(=O)N(C)C)c1C [Example 2-50]
80%: Post-emergence action against ECHCG in % (Echinochloa crus-galli [3]; 5 g/ha) | Post-emergence action against SETVI in % (Setaria viridis [9]; 20 g/ha) | Post-emergence action against ALOMY (Alopecurus myosuroides [10]) | Pre-emergence action against VERPE (Veronica persica [11]; 80 g/ha) | Pre-emergence action against ECHCG (Echinochloa crus-galli [13])
90%: Post-emergence action against ECHCG in % (Echinochloa crus-galli [3]; 20 g/ha) | Post-emergence action against VERPE in % (Veronica persica [15]) | Post-emergence action against VIOTR in % (Viola tricolor [4]; 20 g/ha) | Pre-emergence action against MATIN (Matricaria inodora [5]; 20 g/ha) | Pre-emergence action against MATIN (Matricaria inodora [5]; 80 g/ha) | Post-emergence action against ABUTH (Abutilon theophrasti [16]; 5 g/ha) | Post-emergence action against ABUTH (Abutilon theophrasti [16]; 20 g/ha) | Pre-emergence action against ALOMY (Alopecurus myosuroides [7]) | Pre-emergence action against POLCO (Polygonum convolvulus) | Pre-emergence action against AMARE (Amaranthus retroflexus [12]; 20 g/ha)
100%: Pre-emergence action against ABUTH (Abutilon theophrasti [1]; 80 g/ha) | Post-emergence action against AMARE in % (Amaranthus retroflexus [14]; 5 g/ha) | Post-emergence action against AMARE in % (Amaranthus retroflexus [14]; 20 g/ha) | Pre-emergence action against AMARE (Amaranthus retroflexus [12]; 80 g/ha)

Cc1c(C(=O)Nc2nnnn2C)ccc(C(F)(F)F)c1C(=O)N(C)C1CC1 [Example 1-21]
100%: Pre-emergence action against ABUTH (Abutilon theophrasti [1]; 80 g/ha) | Pre-emergence action against VIOTR (Viola tricolor [2]; 80 g/ha) | Pre-emergence action against MATIN (Matricaria inodora [5]; 80 g/ha) | Pre-emergence action against SETVI (Setaria viridis [8]) | Pre-emergence action against DIGSA (Digitaria sanguinalis; 20 g/ha) | Pre-emergence action against DIGSA (Digitaria sanguinalis; 80 g/ha) | Pre-emergence action against AMARE (Amaranthus retroflexus [12]; 20 g/ha) | Pre-emergence action against AMARE (Amaranthus retroflexus [12]; 80 g/ha)
90%: Pre-emergence action against VIOTR (Viola tricolor [2]; 20 g/ha) | Post-emergence action against ECHCG in % (Echinochloa crus-galli [3]; 20 g/ha) | Pre-emergence action against ALOMY (Alopecurus myosuroides [7]) | Post-emergence action against SETVI in % (Setaria viridis [9]; 20 g/ha) | Pre-emergence action against ECHCG (Echinochloa crus-galli [13])
80%: Post-emergence action against VERPE in % (Veronica persica [15]) | Pre-emergence action against MATIN (Matricaria inodora [5]; 20 g/ha) | Post-emergence action against MATIN in % (Matricaria inodora [6]; 20 g/ha) | Post-emergence action against ALOMY (Alopecurus myosuroides [10]) | Pre-emergence action against VERPE (Veronica persica [11]; 80 g/ha)
